# Article PMC10725991, “Kaempferol is a novel antiviral agent against channel catfish virus infection through blocking viral attachment and penetration in vitro” (Frontiers in Veterinary Science, 2023)
# Columns and labels:
# [1] = system: CCV-induced CPE in CCO cells; test: CPE reduction assay; type: cell-based, Channel catfish virus (CCV, Ictalurid herpesvirus 1)
# Procedure: (§1) To test the anti-CCV effect of tested compounds in the preliminary screening, CCO cells were seeded in 24-well plates and cultured to reach approximately 90% confluence in each well at 28°C. Subsequently, the cells were infected with the CCV at 10^3 TCID50/ml at 28°C for 1 h. After that, the cell culture medium was replaced using an isopycnic DMEM medium containing the maximum safe concentration of indicated compounds. CCV-infected cells treated with DMSO served as a negative control, whereas CCV-infected cells treated with acyclovir (2.5 μg/mL) served as a positive control ([33]). After 36 h treatment, cell lysates were collected to test the CCV gene expression by the RT-qPCR, and the percentage inhibition of CCV infection by individual compound was calculated. According to the percentage inhibition results, we further detected the antiviral activity of kaempferol at maximum safe concentration by viral cytopathic effects (CPE) and western blot analysis.
# For analyzing the CPE reduction of viral infected CCO cells by kaempferol, the CCO cells were seeded in 24-well plates and cultured overnight at 28°C before infection. Then, the monolayer cells were infected with CCV at 10^3 TCID50/ml for 1 h. Subsequently, the infected cells were treated with kaempferol at different concentrations (2.5, 5, 7.5, 10, 12.5, and 15 μg/mL), respectively. […]
# [2] = system: CCV ORF 39 and ORF 59 proteins in CCO cells; test: Western blot of CCV ORF 39 and ORF 59 proteins; type: cell-based, Channel catfish virus (CCV, Ictalurid herpesvirus 1)
# Procedure: as §1, with “analysis. […]” for “analysis.”
# For the western blot assay, firstly, cells were lysed with cell lysis buffer (Beyotime, China), and then the concentrations of protein samples collected from cell lysates protein were determined using the Enhanced BCA Protein Assay Kit (Beyotime, China). […] Finally, the signals were detected using an ECL kit (Beyotime, China) according to the manufacturer’s instructions.
# [3] = maximum safe concentration (47.53 μg/mL), 36 h post-infection
smiles,measurement,setting,value
O=c1c(O)c(-c2ccc(O)cc2)oc2cc(O)cc(O)c12 [Kaempferol],CCV-induced CPE,"[1]; kaempferol 10–15 μg/mL, until 36 h",no obvious CPE
same,CPE induced by CCV infection,[1]; [3],significantly reduced CPE
same,"viral protein (CCV ORF 39, ORF 59) level, western blot","[2]; kaempferol 10 μg/mL to 15 μg/mL, 24 and 36 h",nearly undetectable
same,"expression of viral proteins (CCV ORF 39, ORF 59), western blot",[2]; [3],suppressed the expression of viral proteins
